Where two headings read alike, the source gives them in different places.
Legend:
fungi and bacteria = conditions: in vitro, cited from earlier work; for antimicrobial effect on comparison: 30 % diol
Pityrosporum ovale = conditions: 50 % aqueous solution; cited from earlier work
Tricophyton rubrum = assay: MIC of propylene glycol alone and mixed with lactic acid; type: cell-based; conditions: propylene glycol (100%) alone
Description: (§1) The minimal inhibitory concentration (MIC) for propylene glycol (100%) tested on the bacterium Staphylococcus aureus and the dermophyte Tricophyton rubrum dropped from 8 % to 0.15 % and 0.38 % respectively if lactic acid was mixed with propylene glycol in the ratios 3:10 or 2:3. The composition gave a minimal inhibitory effect at concentration 0.25% and 0.5 % respectively. These MIC-values should be compared with the considerably higher MIC-values of 40 %, which were obtained when propylene glycol at 20 % was combined with aluminium acetotartrate (SE 8802257-9). […] Also other concentration ratios gave stronger but not optimum effect. The antimicrobial effects were not proportionate to the degree of acidity (pH).

Staphylococcus aureus [1] = assay: as above; type: cell-based; conditions: propylene glycol (100%) alone
Description: as §1

Staphylococcus aureus [2] = assay: MIC-plate determination (agar dilution), agents E1 and E2; type: cell-based; conditions: clinical isolate
Procedure: (§2) A determination of the minimum inhibitory concentration (MIC) was carried out for different compositions of acid/glycol on different microorganisms.
(§3) The components included in the composition were weighed with decimal precision. A dilution series in sterile destilled water was made where the completed composition is dilution 1. Dilution 2 is 50 % of the composition, dilution 3 is 25 % etc. One thus gets a series of 100 - 50 - 25 - 12.5 - 6.3- 3.1 - 1.6 - 0.8 - 0.4 - 0.2 - 0.1 %. To said dilutions the same amount (volume) of Oxoids Isosensitest agar was added at 62.4 g medium per litre.
(§4) The Isosensitest agar is prepared and sterilized according to the maker's instructions. […] Furthermore a plate without the composition was prepared, called a blanc plate. From the different mixtures MIC-plates are moulded in sterile Petri dishes. From each agent a suspension was made corresponding to MacFarland 1. From this 0.2 ml was added to each MIC-plate and the blanc plate with a pipette. The MIC-plates were incubated in a thermostat having an optimum temperature for the agent. The MIC-value is the concentration of the composition on the MIC-plate where growth has stopped completely. Example. Agent 1 grows in 0.1 %, 0.2 %, 0.4 %, On the 0.8 %-plate the growth is weak but visible.

Pseudomonas aeruginosa = assay: MIC-plate determination (agar dilution), agents G1 and G2; type: cell-based; conditions: clinical isolate
Procedure: as §2, §3, §4

Trichophyton rubrum = assay: MIC-plate determination (agar dilution), agents C1 and C2; type: cell-based; conditions: clinical isolate
Procedure: as §2, §3, §4

Candica albicans = assay: MIC-plate determination (agar dilution), agents A1 and A2; type: cell-based; conditions: clinical isolate
Procedure: as §2, §3, §4

Malassezia furfur = assay: MIC-plate determination (agar dilution), agent B1; type: cell-based; conditions: agent B1, Malassezia furfur (Pityrosporum ovale)
Procedure: as §2, §3, §4

[3] = pH in the various MIC plates; type: physicochemical
Procedure: as §3, §4

Pityrosporum orbiculare = assay: MIC-plate determination (agar dilution), agent B2; type: cell-based; conditions: agent B2, Pityrosporum orbiculare (Pityrosporum ovale)
Procedure: as §2, §3, §4

Aspergillus niger = assay: MIC-plate determination (agar dilution), agents D1 and D2; type: cell-based; conditions: clinical isolate
Procedure: as §2, §3, §4

Streptococcus pyogenes = assay: MIC-plate determination (agar dilution), agents F1 and F2; type: cell-based; conditions: clinical isolate
Procedure: as §2, §3, §4

In the case of `OCCCCO` [Composition 2, Butylene glycol], the “antimicrobial effect on comparison” value (fungi and bacteria) is listed as “about as effective as 10 % hexylene glycol”.

In the case of `CC(O)CO` (stereo not drawn) [Composition 1, Propylene glycol], the “effect against Pityriasis versicolor” value (Pityrosporum ovale) is given as “effective”, the “minimal inhibitory concentration (MIC) for propylene glycol” value (Tricophyton rubrum) is given as 8% and the “minimal inhibitory concentration (MIC) for propylene glycol” value (Staphylococcus aureus [1]) is given as 8%. The “antimicrobial effect on comparison” value (fungi and bacteria) was “about as effective as 10 % hexylene glycol”.

In the case of `CC(O)CC(C)(C)O` (stereo not drawn) [Composition 3], the MIC-value (Staphylococcus aureus [2]; agent E1, Staphylococcus aureus) is reported as 12.5%, the MIC-value (Staphylococcus aureus [2]; agent E2, Staphylococcus aureus) is reported as 12.5% and the MIC-value (Pseudomonas aeruginosa; agent G1, Pseudomonas aeruginosa) is reported as 1.6%. It also gave an MIC-value (Pseudomonas aeruginosa; agent G2, Pseudomonas aeruginosa) of 3.1%, an MIC-value (Trichophyton rubrum; agent C1, Trichophyton rubrum) of 0.8% and an MIC-value (Trichophyton rubrum; agent C2, Trichophyton rubrum) of 0.8%. The MIC-value (Candica albicans; agent A1, Candica albicans) was 6.3%, the MIC-value (Candica albicans; agent A2, Candica albicans) was 6.3% and the MIC-value (Malassezia furfur) was 25%. For the same compound, the “pH in the MIC plate” value ([3]; MIC-plate 0.05 (% composition in Isosensitest agar)) was 7, the “pH in the MIC plate” value ([3]; MIC-plate 0.1 (% composition in Isosensitest agar)) was 7 and the “pH in the MIC plate” value ([3]; MIC-plate 0.2 (% composition in Isosensitest agar)) was 7. The “pH in the MIC plate” value ([3]; MIC-plate 0.4 (% composition in Isosensitest agar)) was 7, the “pH in the MIC plate” value ([3]; MIC-plate 0.8 (% composition in Isosensitest agar)) was 7 and the “pH in the MIC plate” value ([3]; MIC-plate 1.6 (% composition in Isosensitest agar)) was 7. For the same compound, the “pH in the MIC plate” value ([3]; MIC-plate 3.1 (% composition in Isosensitest agar)) was 7, the “pH in the MIC plate” value ([3]; MIC-plate 6.3 (% composition in Isosensitest agar)) was 7 and the “pH in the MIC plate” value ([3]; MIC-plate 12.5 (% composition in Isosensitest agar)) was 7. For the same compound, the “pH in the MIC plate” value ([3]; MIC-plate 25 (% composition in Isosensitest agar)) was 7, the “pH in the MIC plate” value ([3]; MIC-plate 50 (% composition in Isosensitest agar)) was 7 and the MIC-value (Pityrosporum orbiculare) was 25%. The MIC-value (Aspergillus niger; agent D1, Aspergillus niger) was 6.3%, the MIC-value (Aspergillus niger; agent D2, Aspergillus niger) was 6.3% and the MIC-value (Streptococcus pyogenes; agent F1, Streptococcus pyogenes) was 12.5%. The MIC-value (Streptococcus pyogenes; agent F2, Streptococcus pyogenes) was 12.5%.

In the case of Hexylene glycol [Composition 3], the antimicrobial effect (fungi and bacteria; 1 % of the agent) is given as “lacked effect”, the antimicrobial effect (fungi and bacteria; 5 % hexylene glycol) is given as “a certain antimicrobial effect” and the antimicrobial effect (fungi and bacteria; 10-30 % hexylene glycol) is given as “showed antimicrobial effect within 20 hours”.
